{
  "source": "patent US11697850B2",
  "about": "“Polymorphism in the Apo(a) gene predict responsiveness to acetylsalicylic acid treatment” (Celera Corporation, priority 2007, dated 2023)",
  "experiment": "Women's Health Study (WHS): randomized trial of low dose aspirin vs placebo, incident cardiovascular events stratified by rs3798220 genotype or Lp(a) level",
  "assay_type": "in vivo, human",
  "conditions": "for relative risk reduction of major vascular events with aspirin: aspirin 100 mg orally on alternate days vs placebo, 10-year follow-up",
  "excerpt": "The genotype of this polymorphism was therefore determined among 26,274 initially healthy women from the Women's Health Study (WHS) who had been randomly allocated to low dose aspirin or placebo and then followed over a 10-year period for incident cardiovascular events (31). This setting afforded the opportunity for prospective assessment not only of rs3798220 association with Lp(a) levels and vascular risk, but also of an interaction between aspirin and genetic effects on risk. Although most of the study participants were Caucasian, there were sufficient numbers of non-Caucasian participants to address population-specific influences on associations between rs3798220 and Lp(a) levels, as have been found in previous comparisons of other apolipoprotein(a) variants among populations with different biogeographic ancestry (32-36).\nStudy Populations: The primary study population derived from the Women's Health Study (WHS), a randomized trial of aspirin (100 mg orally on alternate days) and placebo in the primary prevention of cardiovascular disease conducted among initially healthy women aged at least 45 at enrollment who were followed over a 10 year period (1, 2). At enrollment, participants provided baseline clinical and demographic information. 28,345 WHS participants provided blood for plasma and genetic analysis. Among these samples, baseline Lp(a) levels were measured with a turbidimetric assay that is not affected by the number of Kr IV type-2 repeats on the Hitachi 917 analyzer (Roche Diagnostics, Indianapolis, Ind.) (3). Baseline measurement of other lipid fractions, inflammation biomarkers, and other plasma components has been described previously (4). Total incident cardiovascular events adjudicated during the follow-up period included those typically associated with plaque rupture and vessel occlusion such as myocardial infarction (MI), ischemic stroke, and cardiovascular death, as well as those typically associated with progression of underlying atherosclerotic disease defined as revascularization by percutaneous transluminal coronary angioplasty (PTCA) or coronary artery bypass graft (CABG). Major incident cardiovascular events were defined as myocardial infarction, ischemic stroke, or cardiovascular death. In addition, the association between rs3798220 and plasma Lp(a) levels was evaluated in an independent group of 1058 Caucasian men who had participated in the Physicians Health Study (PHS) (5). Among these PHS participants, Lp(a) levels were determined with a standard clinical ELISA-based method (6).\nGenotyping: Genotypes for rs3798220 in the WHS participants were determined by an oligonucleotide ligation procedure that combined PCR amplification of target sequences from 3 ng of genomic DNA with subsequent allele-specific oligonucleotide ligation (7). The ligation products of the two alleles were then separated by hybridization to product specific oligonucleotides, each coupled to spectrally distinct Luminex®100™ xMAP microspheres (Luminex, Austin, Tex.). The captured products were fluorescently labeled with streptavidin R-phycoerythrin (Prozyme, San Leandro, Calif.), sorted on the basis of microsphere spectrum, and detected by a Luminex®100™ instrument (8). Genotypes at rs3798220 in the PHS were determined with a fluorescence-based, allele specific, real-time DNA amplification method as described (ABI, Foster City) (9). For the WHS and PHS populations respectively, the fractions of samples with successful genotype determination were 96.3% and 97.8%. Of the 27,289 women with DNA samples for genotyping, full ascertainment for rs3798220 genotype, Lp(a) levels, age, and occurrence of incident cardiovascular events were available for 25,436. Of these, 24,320 were Caucasian, 468 were African-American, 282 were Asian American, 262 where Hispanic, 62 were Native American, and 42 had unknown ancestry.\nStatistical methods: Deviations from Hardy-Weinberg equilibrium were evaluated using a log-likelihood ratio test. […]",
  "data": [
    {"smiles": "CC(=O)Oc1ccccc1C(=O)O", "note": "[aspirin, acetylsalicylic acid]", "values": [
      {"measurement": "relative risk reduction of major vascular events with aspirin", "setting": "Caucasian WHS women, non-carriers of rs3798220 minor allele (TT)", "result": 9, "unit": "%"},
      {"measurement": "relative risk reduction of coronary revascularization with aspirin", "setting": "Caucasian WHS women, rs3798220 heterozygotes, aspirin 100 mg on alternate days vs placebo", "result": 36, "unit": "%"},
      {"measurement": "relative risk reduction of major vascular events with aspirin", "setting": "Caucasian WHS women, rs3798220 heterozygotes", "result": 59, "unit": "%"},
      {"measurement": "effect of aspirin on relative risk of vascular events", "setting": "Caucasian non-carriers of rs3798220 minor allele with Lp(a) above the 90th percentile (65.1 mg/dL)", "result": "reduced the relative risk of vascular events"},
      {"measurement": "effect of aspirin on relative risk of vascular events", "setting": "Caucasian non-carriers of rs3798220 minor allele with Lp(a) below the 90th percentile", "result": "minimal effect"},
      {"measurement": "relative risk reduction for the revascularization endpoint with aspirin", "setting": "Caucasians with Lp(a) levels above the 90th percentile (65.1 mg/dL), aspirin vs placebo", "result": 39, "unit": "%"}
    ]}
  ]
}
